Measurements reported in patent publication US20090081669A1 (ENCODE BIO, INC., priority 2006, published 2009).

Columns and labels:
yeast strain MaV203 = assay: Rescue of GAL4 (TAG) expression by DANSYL-O-RS/O-tRNA pair, growth in the absence of uracil; assay type: cell-based; settings: MaV203 with DANSYL-O-RS, suppressor O-tRNA and GAL4 TAG
Source text: The yeast strain MaV203 was transfected with plasmids coding for the DANSYL-O-RS (SEQ ID NO:12, derived from E. coli), suppressor O-tRNA (SEQ ID NO:5 derived from E. coli) and a marker gene, GAL4, containing nonsense TAG codons. Yeast harboring a functional DANSYL-RSOR and suppressor tRNA OR will “rescue” expression of GAL4. The MAV203 yeast strain contains the URA3 gene (required for uracil biosynthesis) under control of the GAL4 promoter. When grown in the absence of uracil, MAV203 yeast will not grow unless “rescue” of GAL4 expression occurs.

CAT-TAG in CHO cells = assay: CAT-TAG expression in transfected CHO cells (FAST CAT assay); assay type: cell-based; settings: cells with O-RS/O-tRNA and CAT-TAG, grown in the presence of dansyl-alanine
Source text: We first redesigned the suppressor O-tRNA gene to make it suitable for expression in mammalian cells by altering the 5′ UTR, mutating the promoter regions and generating a tandem repeat, thereby forming SEQ ID NO:6, and subcloned the O-RS gene (SEQ ID NO:12) into a mammalian expression vector. We transformed CHO cells with the plasmids encoding the modified O-RS/O-tRNA genes and a marker gene, Chloramphenicol Acetyltransferase (“CAT”), containing a nonsense TAG codon (“CAT-TAG”). Expression of CAT-TAG was assessed using a fluorescent-based assay (FAST CAT, Invitrogen, Inc.) that measures the conversion of chloramphenicol-BODIPY (FL-CM) to 3-acetyl-chloramphenicol-BODIPY (FL-AcCM) by thin layer chromatography. […] As a positive control, cells were transfected with wildtype CAT cDNA.

CN(C)c1cccc2c(S(=O)(=O)NC[C@H](N)C(=O)O)cccc12
growth of transformed yeast in the absence of uracil (yeast strain MaV203): Growth was only observed when the transformed yeast were grown in the presence of dansyl-alanine | CAT activity of transfected CHO cells (CAT-TAG in CHO cells): expressed significant CAT activity
